The structures appear in SMILES notation.

These results are taken from patent US8058295B2, “Cystic fibrosis transmembrane conductance regulator protein inhibitors and uses thereof” (The Regents of the University of California, priority 2002, dated 2011).

wildtype CFTR, sequence (P13569 whole entry): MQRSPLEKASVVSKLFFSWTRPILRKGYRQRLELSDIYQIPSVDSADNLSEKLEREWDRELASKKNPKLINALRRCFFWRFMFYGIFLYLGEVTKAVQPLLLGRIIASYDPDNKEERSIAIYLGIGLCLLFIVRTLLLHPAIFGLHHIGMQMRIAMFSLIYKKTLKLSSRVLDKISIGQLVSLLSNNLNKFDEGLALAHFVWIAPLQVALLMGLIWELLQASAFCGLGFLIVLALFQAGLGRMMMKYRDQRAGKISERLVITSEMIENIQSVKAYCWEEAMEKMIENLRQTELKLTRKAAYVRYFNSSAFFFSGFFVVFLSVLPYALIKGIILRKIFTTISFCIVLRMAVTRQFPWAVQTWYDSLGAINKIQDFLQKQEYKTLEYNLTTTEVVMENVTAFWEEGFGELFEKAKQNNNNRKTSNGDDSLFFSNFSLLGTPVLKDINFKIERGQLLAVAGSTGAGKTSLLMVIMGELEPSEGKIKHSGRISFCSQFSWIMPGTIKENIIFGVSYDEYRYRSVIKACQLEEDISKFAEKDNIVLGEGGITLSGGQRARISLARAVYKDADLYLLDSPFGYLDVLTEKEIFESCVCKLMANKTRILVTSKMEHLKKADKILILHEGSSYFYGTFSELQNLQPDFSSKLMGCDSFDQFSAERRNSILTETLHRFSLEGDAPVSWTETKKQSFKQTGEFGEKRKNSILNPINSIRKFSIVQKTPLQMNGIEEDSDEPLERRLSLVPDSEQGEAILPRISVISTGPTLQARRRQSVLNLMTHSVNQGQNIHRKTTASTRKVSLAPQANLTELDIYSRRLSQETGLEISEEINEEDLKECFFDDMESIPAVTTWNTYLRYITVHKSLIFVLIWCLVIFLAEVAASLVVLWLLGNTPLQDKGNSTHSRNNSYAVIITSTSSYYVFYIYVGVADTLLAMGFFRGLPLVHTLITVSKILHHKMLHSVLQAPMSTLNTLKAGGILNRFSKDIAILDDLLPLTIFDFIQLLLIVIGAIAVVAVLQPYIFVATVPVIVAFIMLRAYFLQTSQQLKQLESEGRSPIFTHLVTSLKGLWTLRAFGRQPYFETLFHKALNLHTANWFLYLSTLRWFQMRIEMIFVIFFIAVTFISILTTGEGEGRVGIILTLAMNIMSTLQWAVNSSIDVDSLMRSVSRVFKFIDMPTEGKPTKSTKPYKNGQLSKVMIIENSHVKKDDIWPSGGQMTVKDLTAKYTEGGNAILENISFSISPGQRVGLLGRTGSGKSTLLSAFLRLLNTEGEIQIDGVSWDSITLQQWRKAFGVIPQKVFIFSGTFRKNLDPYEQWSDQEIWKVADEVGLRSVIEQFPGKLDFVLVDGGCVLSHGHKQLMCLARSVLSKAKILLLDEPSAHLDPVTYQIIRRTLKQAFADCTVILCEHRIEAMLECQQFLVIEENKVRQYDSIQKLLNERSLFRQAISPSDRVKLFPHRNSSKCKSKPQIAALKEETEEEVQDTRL

One series deals with wildtype CFTR (Homo sapiens, UniProt P13569). Nature of the series: YFP fluorescence assay of CFTR-mediated I^− transport in FRT cells. Type of series: cell-based. Set-up: expressed in transfected cells; host or cells: Fischer rat thyroid (FRT) cells. The conditions noted are these: relative to CFTRinh-172 = 1.0. The method, then:
FIG. 1A is a schematic representation of a screening technique used for detection of CFTR inhibitors. CFTR was maximally stimulated by multiple agonists in stably transfected epithelial cells co-expressing human CFTR and a yellow fluorescent protein (YFP) having Cl^−/I^− sensitive fluorescence. After addition of a test compound, I^− influx was induced by adding an I^− containing solution.
Cells were plated in 96-well black-walled microplates (Corning Costar) at a density of 20,000 cells per well in Coon's modified F12 medium supplemented with 5% fetal calf serum, 2 mM L-glutamine, 100 U/mL penicillin, and 100 μg/mL streptomycin. Assays were done at 48 hours after plating at which time cells were just confluent (˜40,000 cells per well).
Assays were done using a customized screening system (Beckman) consisting of a 3-meter robotic arm, CO2 incubator, plate washer, liquid handling workstation, bar code reader, delidding station, and two FluoStar fluorescence plate readers (BMG Labtechnologies, Offenburg, Germany), each equipped with two syringe pumps and HQ500/20X (500±10 nm) excitation and HQ535/30M (535±15 nm) emission filters (Chroma). The robotic system was integrated using SAMI version 3.3 software (Beckman) modified for two plate readers. Custom software was written in VBA (Visual Basic for Applications) to compute baseline-subtracted, normalized fluorescence slopes (giving halide influx rates) from stored data files.
The assay was set-up by loading the incubator (37° C., 90% humidity, 5% CO2) with 40-60 96-well plates containing the FRT cells, and loading a carousel with 96-well plates containing test compounds and disposable plastic pipette tips. To initiate the assay, each well of a 96-well plate was washed 3 times in PBS (300 μL/wash), leaving 50 μL PBS. Ten μL of a CFTR-activating cocktail (5 μM forskolin, 100 μM IBMX, 25 μM apigenin in PBS) was added, and after 5 min one test compound (0.5 μL of 1 mM DMSO solution) was added to each well to give 10 μM final concentration. After 10 min, 96-well plates were transferred to a plate reader for fluorescence assay. Each well was assayed individually for CFTR-mediated I^− transport by recording fluorescence continuously (200 ms per point) for 2 s (baseline) and then for 12 s after rapid (<0.5 s) addition of 160 μL of isosmolar PBS in which 137 mM Cl^− was replaced by I^−.
The primary screening technique used to identify the compounds of the invention was designed to identify inhibitors of CFTR Cl^− conductance by direct CFTR-inhibitor interaction. CFTR was pre-stimulated in CFTR-expressing FRT cells by an activating cocktail containing forskolin, IBMX and apigenin, as shown schematically in FIG. 1A. The activation of CFTR by multiple mechanisms (cAMP elevation, phosphodiesterase inhibition, and direct CFTR binding) allowed identification of inhibitors that blocked the CFTR Cl^− transporting pathway directly rather than more proximal step(s) in a signaling pathway. The FRT cells co-expressed a yellow fluorescent protein-based Cl^−/I^− sensor that provided a quantitative fluorescence read-out of inhibition potency (See, e.g., Jayaraman et al., 2000, J. Biol. Chem. 275:6047-6050; Galietta et al., 2001, Am. J. Physiol. 281:C1734-C1742.). After CFTR pre-stimulation and compound addition, cells were subjected to an inwardly-directed I^− gradient to drive I^− influx and produce decreasing fluorescence. Each assay consisted of recording baseline fluorescence for 2 seconds, followed by 12 seconds of continuous recording of fluorescence after rapid addition of the I^− containing solution. Compounds were tested separately at 10 μM concentration in a 96-well format utilizing a fully-automated high-throughput screening apparatus (see Example 2 below).
As for `O=C(O)c1ccccc1C=C1SC(=S)N(c2ccccc2C(F)(F)F)C1=O` [2, 3, 3-[(a-trifluoromethyl)phenyl]-5-[(b-carboxyphenyl)methylene]-2-thioxo-4-thiazolidinone], the “relative potency (CFTR inhibition)” value is given as 0.70.

In the case of `O=C(O)c1ccccc1C=C1SC(=S)N(c2ccccc2C(F)(F)F)C1=O` [2, 4, 3-[(a-trifluoromethyl)phenyl]-5-[(b-carboxyphenyl)methylene]-2-thioxo-4-thiazolidinone], the “relative potency (CFTR inhibition)” value turned out to be 0.66.

For `O=C(O)c1ccccc1C=C1SC(=S)N(c2ccccc2C(F)(F)F)C1=O` [3, 2, 3-[(a-trifluoromethyl)phenyl]-5-[(b-carboxyphenyl)methylene]-2-thioxo-4-thiazolidinone], the “relative potency (CFTR inhibition)” value is given as 0.74.

For `O=C(O)c1ccccc1C=C1SC(=S)N(c2ccccc2C(F)(F)F)C1=O` [3, 3, 3-[(a-trifluoromethyl)phenyl]-5-[(b-carboxyphenyl)methylene]-2-thioxo-4-thiazolidinone], the “relative potency (CFTR inhibition)” value is 0.90.

Take `O=C(O)c1ccccc1C=C1SC(=S)N(c2ccccc2C(F)(F)F)C1=O` [4, 2, 3-[(a-trifluoromethyl)phenyl]-5-[(b-carboxyphenyl)methylene]-2-thioxo-4-thiazolidinone]: the “relative potency (CFTR inhibition)” value amounted to 0.67.

Consider `O=C(O)c1ccccc1C=C1SC(=S)N(c2ccccc2C(F)(F)F)C1=O` [4, 3, 3-[(a-trifluoromethyl)phenyl]-5-[(b-carboxyphenyl)methylene]-2-thioxo-4-thiazolidinone], for which the “relative potency (CFTR inhibition)” value turned out to be 0.64.

Consider `O=C(O)c1ccccc1C=C1SC(=S)N(c2ccccc2C(F)(F)F)C1=O` [4, 4, 3-[(a-trifluoromethyl)phenyl]-5-[(b-carboxyphenyl)methylene]-2-thioxo-4-thiazolidinone], for which the “relative potency (CFTR inhibition)” value is listed as 0.56.

On to `O=C1/C(=C/c2ccc([N+](=O)[O-])cc2)SC(=S)N1c1cccc(C(F)(F)F)c1` [CFTRinh-020, 3-[(3-trifluoromethyl)phenyl]-5-[(4-nitrophenyl)methylene]-2-thioxo-4-thiazolidinone], for which the “relative potency (CFTR inhibition)” value was 0.2.

With `O=C(O)Oc1ccc(/C=C2\SC(=S)N(c3cccc(C(F)(F)F)c3)C2=O)cc1` [CFTRinh-029, 3-[(3-trifluoromethyl)phenyl]-5-[(4-oxycarboxyphenyl)methylene]-2-thioxo-4-thiazolidinone], the “relative potency (CFTR inhibition)” value is listed as 0.3.

In the case of `O=C1/C(=C/c2ccc(O)c(O)c2)SC(=S)N1c1cccc(C(F)(F)F)c1` [CFTRinh-185, 3-[(3-trifluoromethyl)phenyl]-5-[(3,4-dihydroxyphenyl)methylene]-2-thioxo-4-thiazolidinone], the “relative potency (CFTR inhibition)” value is reported as 0.2.

Regarding `O=C1/C(=C/c2cc(Br)c(O)c(Br)c2)SC(=S)N1c1cccc(C(F)(F)F)c1` [CFTRinh-214, 3-[(3-trifluoromethyl)phenyl]-5-[(3,5-dibromo-4-hydroxyphenyl)methylene]-2-thioxo-4-thiazolidinone], the “relative potency (CFTR inhibition)” value came to 0.1.

On to `O=C1/C(=C/c2cc(Br)c(O)c([N+](=O)[O-])c2)SC(=S)N1c1cccc(C(F)(F)F)c1` [CFTRinh-236, 3-[(3-trifluoromethyl)phenyl]-5-[(3-bromo-4-hydroxy-5-nitrophenyl)methylene]-2-thioxo-4-thiazolidinone], for which the “relative potency (CFTR inhibition)” value is reported as 0.1.

As for `O=C(O)c1ccccc1C=C1SC(=S)N(c2ccccc2C(F)(F)F)C1=O` [a=2, b=2, 3-[(a-trifluoromethyl)phenyl]-5-[(b-carboxyphenyl)methylene]-2-thioxo-4-thiazolidinone], the “relative potency (CFTR inhibition)” value worked out at 0.69.

The target of another series is T1, MDR-1 (Homo sapiens, UniProt P08183).
T1 construct: endogenous in cells; host or cells: 9HTEo-/Dx cells
T1 sequence (P08183 whole entry): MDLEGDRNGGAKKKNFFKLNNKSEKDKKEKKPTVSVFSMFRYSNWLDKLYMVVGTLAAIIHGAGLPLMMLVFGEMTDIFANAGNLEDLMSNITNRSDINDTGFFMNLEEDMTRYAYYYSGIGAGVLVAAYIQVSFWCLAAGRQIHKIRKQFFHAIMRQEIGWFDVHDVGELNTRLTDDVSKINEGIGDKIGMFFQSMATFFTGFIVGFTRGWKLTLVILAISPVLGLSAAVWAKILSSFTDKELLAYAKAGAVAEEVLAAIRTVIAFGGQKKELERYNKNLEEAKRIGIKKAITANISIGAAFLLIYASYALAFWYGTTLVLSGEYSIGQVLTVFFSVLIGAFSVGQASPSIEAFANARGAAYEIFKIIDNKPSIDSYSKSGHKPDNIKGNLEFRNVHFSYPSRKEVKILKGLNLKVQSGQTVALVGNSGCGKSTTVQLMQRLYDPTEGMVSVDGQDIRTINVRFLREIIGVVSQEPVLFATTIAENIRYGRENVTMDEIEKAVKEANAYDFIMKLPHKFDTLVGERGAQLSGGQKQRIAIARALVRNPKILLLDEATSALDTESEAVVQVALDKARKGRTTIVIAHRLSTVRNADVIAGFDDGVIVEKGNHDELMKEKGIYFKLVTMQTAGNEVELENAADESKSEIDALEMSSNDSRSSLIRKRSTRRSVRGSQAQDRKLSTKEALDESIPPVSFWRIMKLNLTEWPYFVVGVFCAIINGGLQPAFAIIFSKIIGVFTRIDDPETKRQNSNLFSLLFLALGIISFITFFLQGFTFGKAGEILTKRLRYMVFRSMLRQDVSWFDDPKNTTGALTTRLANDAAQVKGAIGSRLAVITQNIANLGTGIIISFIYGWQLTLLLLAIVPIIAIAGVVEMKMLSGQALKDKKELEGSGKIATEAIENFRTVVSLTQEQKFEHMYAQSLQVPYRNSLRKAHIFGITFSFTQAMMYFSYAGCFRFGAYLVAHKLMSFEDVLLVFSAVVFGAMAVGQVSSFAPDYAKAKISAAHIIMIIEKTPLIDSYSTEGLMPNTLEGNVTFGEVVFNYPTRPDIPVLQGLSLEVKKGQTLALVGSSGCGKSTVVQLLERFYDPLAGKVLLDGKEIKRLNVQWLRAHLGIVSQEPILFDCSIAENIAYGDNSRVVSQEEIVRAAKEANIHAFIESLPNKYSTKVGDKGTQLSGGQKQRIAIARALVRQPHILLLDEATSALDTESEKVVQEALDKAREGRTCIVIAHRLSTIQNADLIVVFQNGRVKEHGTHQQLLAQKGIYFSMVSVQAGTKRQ
Nature of the series: MDR-1 activity, ^3H-vincristine accumulation in 9HTEo-/Dx cells. Type of series: cell-based. The conditions noted are these: 100 μM.
Take `COc1ccc(CCN(C)CCCC(C#N)(c2ccc(OC)c(OC)c2)C(C)C)cc1OC` (stereo not shown) [verapamil, reference compound]: the vincristine accumulation result was “strongly increased”.

The test system of a further series is Caco-2 monolayers.
Assay: not given
The conditions noted are these: literature values, Stenberg et al.; cited from earlier work.
Turning to `CC(C)NCC(O)COc1cccc2[nH]ccc12` (stereo not shown) [pindolol], the permeability coefficient was 36 ×10⁻⁶ cm/s.

Regarding `CCCc1nn(C)c2c(=O)[nH]c(-c3cc(S(=O)(=O)N4CCN(C)CC4)ccc3OCC)nc12` [sildenafil], the permeability coefficient is 48 ×10⁻⁶ cm/s.
